Results reported in ChEMBL document CHEMBL1128165, “Quinuclidine-based NK1 antagonists, the role of the benzhydryl” (Bioorg Med Chem Lett, 1995).

Legend:
Substance-P receptor [1] = target: Substance-P receptor (Homo sapiens, UniProt P25103); assay: Binding affinity towards wild type human Wild-type tachykinin receptor 1 expressed in Chinese hamster ovary cells; assay type: cell-based
Substance-P receptor [2] = target: Substance-P receptor (Homo sapiens, UniProt P25103, H197A); assay: Binding affinity towards human mutant NK-1 receptor in which His-197 has been replaced by alanine (H197A)
Chain of Substance-P receptor (Homo sapiens, UniProt P25103, H197A) (P25103 whole entry H197A): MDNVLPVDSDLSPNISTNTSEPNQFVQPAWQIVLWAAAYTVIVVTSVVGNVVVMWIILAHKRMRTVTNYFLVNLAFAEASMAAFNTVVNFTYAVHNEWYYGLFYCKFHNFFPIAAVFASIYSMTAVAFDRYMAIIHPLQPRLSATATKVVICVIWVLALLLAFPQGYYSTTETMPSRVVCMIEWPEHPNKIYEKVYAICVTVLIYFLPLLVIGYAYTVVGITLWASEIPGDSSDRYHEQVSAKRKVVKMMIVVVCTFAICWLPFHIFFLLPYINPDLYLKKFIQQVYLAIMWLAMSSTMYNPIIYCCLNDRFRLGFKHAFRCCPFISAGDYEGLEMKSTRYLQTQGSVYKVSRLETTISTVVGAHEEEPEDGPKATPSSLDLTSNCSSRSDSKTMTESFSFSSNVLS

Chain of Substance-P receptor (Homo sapiens, UniProt P25103) (P25103 whole entry): as the sequence (P25103 whole entry H197A) above, with A197H counted along it

SMILES	IC50 (Substance-P receptor [1]) [nM]	IC50 (Substance-P receptor [2]) [nM]
FC(F)(F)c1cc(CO[C@H]2C3CCN(CC3)[C@H]2C(c2ccccc2)c2ccccc2)cc(C(F)(F)F)c1 [L-709210]	2	330
Cc1cc(C)cc(CO[C@H]2C3CCN(CC3)[C@H]2C(c2ccccc2)c2ccccc2)c1 [L-706125]	2	196
FC(F)(F)c1cc(CO[C@H]2C3CCN(CC3)[C@H]2Cc2ccccc2)cc(C(F)(F)F)c1	197	500
Cc1cc(C)cc(CO[C@H]2C3CCN(CC3)[C@H]2Cc2ccccc2)c1	292	845
